Data on twelve compounds can be found in US7491794B2, “Macrocyclic compounds as inhibitors of viral replication” (Intermune, Inc., priority 2003, dated 2009).

The target in one experiment is T1, NS3-NS4A protease (Hepatitis C virus genotype 1a, UniProt P27958).
T1 construct: Recombinant E. coli or Baculovirus full-length NS3 was diluted to 3.33 μM with assay buffer; made in house; host or cells: E. coli or baculovirus (BV) system
The experiment in a line: NS3-NS4A protease assay (NS3 inhibition assay, RETS1 substrate), Section B. The experiment is classed as biochemical. The conditions noted are these: read-out: NS3-NS4A IC50. An outline of the steps: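 Kinetic fluorescence read (335 nm excitation, 495 nm emission, 30 min) of RETS1 cleavage by NS3/NS4A-2 complex, 2 nM E. coli or 3 nM baculovirus NS3, after 10 min room-temperature compound pre-incubation. Four-parameter-fit IC50s converted to Ki by Cheng–Prusoff, Ki=IC50/(1+[S]/Km).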

Experiment [1] deals with HCV sub-genomic replicon, GS4.3. The experiment in a line: Quantitation by ELISA of NPTII in the HCV sub-genomic replicon, GS4.3, Section B. The experiment is classed as cell-based. The conditions noted are these: Hepatitis C virus, read-out: Replicon EC50. An excerpt: Quantitation by ELISA of the Selectable Marker Protein, Neomycin Phosphotransferase II (NPTII) in the HCV Sub-Genomic Replicon, GS4.3
The HCV sub-genomic replicon (1377/NS3-3′, accession No. AJ242652), stably maintained in HuH-7 hepatoma cells, was created by Lohmann et al. Science 285: 110-113 (1999). The replicon-containing cell culture, designated GS4.3, was obtained from Dr. Christoph Seeger of the Institute for Cancer Research, Fox Chase Cancer Center, Philadelphia, Pa.
GS4.3 cells were maintained at 37° C., 5% CO2, in DMEM (Gibco 11965-092) supplemented with L-glutamine 200 mM (100×) (Gibco25030-081), non-essential amino acids (NEAA)(Biowhittaker 13-114E), heat-inactivated (HI) Fetal Bovine Serum(FBS)(Hyclone SH3007.03) and 750 μg/ml geneticin (G418)(Gibco 10131-035). Cells were sub-divided 1:3 or 4 every 2-3 days.
24 hours prior to the assay, GS4.3 cells were collected, counted, and plated in 96-well plates (Costar 3585) at 7500 cells/well in 100 μl standard maintenance medium (above) and incubated in the conditions above. To initiate the assay, culture medium was removed, cells were washed once with PBS (Gibco 10010-023) and 90 μl Assay Medium (DMEM, L-glutamine, NEAA, 10% HI FBS, no G418) was added. Inhibitors were made as a 10× stock in Assay Medium, (3-fold dilutions from 10 μM to […] final concentration, final DMSO concentration 1%), 10 μl were added to duplicate wells, plates were rocked to mix, and incubated as above for 72 h.
An NPTII ELISA kit was obtained from AGDIA, Inc. (Compound direct ELISA test system for Neomycin Phosphotransferase II, PSP 73000/4800). Manufacturer's instructions were followed, with some modifications. 10×PEB-1 lysis buffer was made up to include 500 μM PMSF (Sigma P7626, 50 mM stock in isopropanol). After 72 h incubation, cells were washed once with PBS and 150 μl PEB-1 with PMSF was added per well. Plates were agitated vigorously for 15 minutes, room temperature, then frozen at −70° C. Plates were thawed, lysates were mixed thoroughly, and 100 μl were applied to an NPTII Elisa plate. A standard curve was made. Lysate from DMSO-treated control cells was pooled, serially diluted with PEB-1 with PMSF, and applied to duplicate wells of the ELISA plate, in a range of initial lysate amount of 150u1-2.5 ul. In addition, 100 μl buffer alone was applied in duplicate as a blank. Plates were sealed and gently agitated at room temperature for 2 h. Following capture incubation, the plates were washed 5×300 μl with PBS-T (0.5% Tween-20, PBS-T was supplied in the ELISA kit). For detection, a 1× dilution of enzyme conjugate diluent MRS-2 (5×) was made in PBS-T, into which 1:100 dilutions of enzyme conjugates A and B were added, as per instructions. Plates were resealed, and incubated with agitation, covered, room temperature, for 2 h. The washing was then repeated and 100 μl of room temperature TMB substrate was added. After approximately 30 minutes incubation (room temperature, agitation, covered), the reaction was stopped with 50 μl 3M sulfuric acid. Plates were read at 450 nm on a Molecular Devices Versamax plate reader.
Inhibitor effect was expressed as a percentage of DMSO-treated control signal, and inhibition curves were calculated using a 4-parameter equation: y=A+((B−A)/(1+((C/x)^D))), where C is half-maximal activity or EC50.

Read-outs that look alike come from different tables or passages of the source.

T1 sequence (P27958 1027-1657): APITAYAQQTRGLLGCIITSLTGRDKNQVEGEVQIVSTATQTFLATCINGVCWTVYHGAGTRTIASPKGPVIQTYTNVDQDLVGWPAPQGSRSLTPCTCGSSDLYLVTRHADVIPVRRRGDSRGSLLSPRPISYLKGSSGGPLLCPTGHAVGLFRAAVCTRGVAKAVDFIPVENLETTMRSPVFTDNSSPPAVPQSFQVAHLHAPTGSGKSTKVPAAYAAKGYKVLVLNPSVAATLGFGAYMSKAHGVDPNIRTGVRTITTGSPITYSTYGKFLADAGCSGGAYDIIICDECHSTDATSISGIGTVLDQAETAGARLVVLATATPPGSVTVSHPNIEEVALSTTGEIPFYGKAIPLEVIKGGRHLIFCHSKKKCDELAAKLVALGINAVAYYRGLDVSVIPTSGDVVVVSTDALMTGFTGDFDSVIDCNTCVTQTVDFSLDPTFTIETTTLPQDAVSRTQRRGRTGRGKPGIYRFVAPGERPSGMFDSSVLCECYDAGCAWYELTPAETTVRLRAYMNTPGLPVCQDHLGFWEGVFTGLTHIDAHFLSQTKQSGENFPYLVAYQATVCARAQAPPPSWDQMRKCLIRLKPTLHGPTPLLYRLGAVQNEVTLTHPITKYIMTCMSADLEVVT

One may read the IC50 as the concentration that gives 50% inhibition. Broadly, the EC50 is the concentration at which the effect is half-maximal. As to `CC(C)(C)OC(=O)N[C@H]1CCCCC/C=C\[C@@H]2C[C@@]2(C(=O)NS(=O)(=O)c2ccc(C(=O)O)cc2)NC(=O)[C@@H]2C[C@@H](OC(=O)N3Cc4ccccc4C3)CN2C1=O` [AR00365387, (1S,4R,6S,14S,18R)-1,3-Dihydro-isoindole-2-carboxylic acid 14-tert-butoxycarbonylamino-4-(4-carboxy-benzenesulfonylaminocarbonyl)-2,15-dioxo-3,16-diaza-tricyclo[14.3.0.0^4,6]nonadec-7-en-18-yl ester], at NS3-NS4A protease, the IC50 is less than 100 nM. For the same compound, in experiment [1] (GS4.3 cells, 72 h incubation), the concentration giving a half-maximal response (EC50) is less than 100 nM.

For `CC(C)(C)OC(=O)N[C@H]1CCCCC/C=C\[C@@H]2C[C@@]2(C(=O)NS(=O)(=O)C2CC2)NC(=O)[C@@H]2C[C@@H](OC(=O)N3CCc4ccc(Cl)cc4C3)CN2C1=O` [AR00301746, (1S,4R,6S,14S,18R)-7-Chloro-3,4-dihydro-1H-isoquinoline-2-carboxylic acid 14-tert-butoxycarbonylamino-4-cyclopropanesulfonylaminocarbonyl-2,15-dioxo-3,16-diaza-tricyclo[14.3.0.0^4,6]nonadec-7-en-18-yl ester], the 50% inhibitory concentration (IC50) at NS3-NS4A protease is less than 100 nM. In addition, the concentration for a half-maximal effect (EC50) in experiment [1] (GS4.3 cells, 72 h incubation) is less than 100 nM.

In the case of `CC(C)(C)OC(=O)N[C@H]1CCCCC/C=C\[C@@H]2C[C@@]2(C(=O)NS(=O)(=O)C2CC2)NC(=O)[C@@H]2C[C@@H](OC(=O)N3Cc4ccc(C(=O)O)cc4C3)CN2C1=O` [AR00365084, (1S,4R,6S,14S,18R)-1,3-Dihydro-isoindole-2,5-dicarboxylic acid 2-(14-tert-butoxycarbonylamino-4-cyclopropanesulfonylaminocarbonyl-2,15-dioxo-3,16-diaza-tricyclo[14.3.0.0^4,6]nonadec-7-en-18-yl) ester], the IC50 on NS3-NS4A protease was less than 100 nM. For the same compound, the half-maximal effective concentration (EC50) in experiment [1] (GS4.3 cells, 72 h incubation) is less than 10000 nM.

As to `CC(C)(C)OC(=O)N[C@H]1CCCCC/C=C\[C@@H]2C[C@@]2(C(=O)NS(=O)(=O)C2CC2)NC(=O)[C@@H]2C[C@@H](OC(=O)N3CCc4cc(C(F)(F)F)ccc4C3)CN2C1=O` [AR00301747, (1S,4R,6S,14S,18R)-6-Trifluoromethyl-3,4-dihydro-1H-isoquinoline-2-carboxylic acid 14-tert-butoxycarbonylamino-4-cyclopropanesulfonylaminocarbonyl-2,15-dioxo-3,16-diaza-tricyclo[14.3.0.0^4,6]nonadec-7-en-18-yl ester], at NS3-NS4A protease, the IC50 is less than 100 nM. Moreover, in experiment [1] (GS4.3 cells, 72 h incubation), the EC50 was less than 100 nM.

On to `O=C(N[C@H]1CCCCC/C=C\[C@@H]2C[C@@]2(C(=O)NS(=O)(=O)C2CC2)NC(=O)[C@@H]2C[C@@H](OC(=O)N3CCc4ccccc4C3)CN2C1=O)OC1CCCC1` [AR00282131, (1S,4R,6S,14S,18R)-3,4-Dihydro-1H-isoquinoline-2-carboxylic acid 14-cyclopentyloxycarbonylamino-4-cyclopropanesulfonylaminocarbonyl-2,15-dioxo-3,16-diaza-tricyclo[14.3.0.0^4,6]nonadec-7-en-18-yl ester], for which the half-maximal inhibitory concentration (IC50) at NS3-NS4A protease was less than 100 nM. Further, the EC50 in experiment [1] (GS4.3 cells, 72 h incubation) was less than 100 nM.

Turning to `CC(C)(C)OC(=O)N[C@H]1CCCCC/C=C\[C@@H]2C[C@@]2(C(=O)NS(=O)(=O)C2CC2)NC(=O)[C@@H]2C[C@@H](OC(=O)N3Cc4cc(Cl)c(Cl)cc4C3)CN2C1=O` [AR00320121, (1S,4R,6S,14S,18R)-5,6-Dichloro-1,3-dihydro-isoindole-2-carboxylic acid 14-tert-butoxycarbonylamino-4-cyclopropanesulfonylaminocarbonyl-2,15-dioxo-3,16-diaza-tricyclo[14.3.0.0^4,6]nonadec-7-en-18-yl ester], on NS3-NS4A protease, the IC50 is less than 100 nM. Besides, in experiment [1] (GS4.3 cells, 72 h incubation), the EC50 is less than 100 nM.

As to `CC1CN(C(=O)O[C@@H]2C[C@H]3C(=O)N[C@]4(C(=O)NS(=O)(=O)C5CC5)C[C@H]4/C=C\CCCCC[C@H](NC(=O)OC(C)(C)C)C(=O)N3C2)Cc2ccccc21` (stereo partly drawn) [AR00312026, (1S,4R,6S,14S,18R)-4-Methyl-3,4-dihydro-1H-isoquinoline-2-carboxylic acid 14-tert-butoxycarbonylamino-4-cyclopropanesulfonylaminocarbonyl-2,15-dioxo-3,16-diaza-tricyclo[14.3.0.0^4,6]nonadec-7-en-18-yl ester], on NS3-NS4A protease, the IC50 was less than 100 nM. The EC50 in experiment [1] (GS4.3 cells, 72 h incubation) is less than 100 nM.

For `CN(C)c1cccc2c1CCN(C(=O)O[C@@H]1C[C@H]3C(=O)N[C@]4(C(=O)NS(=O)(=O)C5CC5)C[C@H]4/C=C\CCCCC[C@H](NC(=O)OC(C)(C)C)C(=O)N3C1)C2` [AR00320120, (1S,4R,6S,14S,18R)-5-Dimethylamino-3,4-dihydro-1H-isoquinoline-2-carboxylic acid 14-tert-butoxycarbonylamino-4-cyclopropanesulfonylaminocarbonyl-2,15-dioxo-3,16-diaza-tricyclo[14.3.0.0^4,6]nonadec-7-en-18-yl ester], the IC50 on NS3-NS4A protease was less than 100 nM. For the same compound, the EC50 in experiment [1] (GS4.3 cells, 72 h incubation) was less than 100 nM.

With `O=C(N[C@H]1CCCCCC=C[C@@H]2C[C@@]2(C(=O)NS(=O)(=O)C2CC2)NC(=O)[C@@H]2C[C@@H](OC(=O)N3Cc4ccccc4C3)CN2C1=O)OC1CCCC1` [AR00333831, (1S,4R,6S,14S,18R)-1,3-Dihydro-isoindole-2-carboxylic acid 14-cyclopentyloxycarbonylamino-4-cyclopropanesulfonylaminocarbonyl-2,15-dioxo-3,16-diaza-tricyclo[14.3.0.0^4,6]nonadec-7-en-18-yl ester], at NS3-NS4A protease, the half-inhibitory concentration (IC50) was less than 100 nM. In addition, the EC50 in experiment [1] (GS4.3 cells, 72 h incubation) is less than 100 nM.

Consider `CC(C)(C)OC(=O)N[C@H]1CCCCC/C=C\[C@@H]2C[C@@]2(C(=O)NS(=O)(=O)C2CC2)NC(=O)[C@@H]2C[C@@H](OC(=O)N3Cc4c(F)ccc(F)c4C3)CN2C1=O` [AR00334399, (1S,4R,6S,14S,18R)-4,7-Difluoro-1,3-dihydro-isoindole-2-carboxylic acid 14-tert-butoxycarbonylamino-4-cyclopropanesulfonylaminocarbonyl-2,15-dioxo-3,16-diaza-tricyclo[14.3.0.0^4,6]nonadec-7-en-18-yl ester], for which the IC50 at NS3-NS4A protease was less than 100 nM. For the same compound, the concentration giving a half-maximal response (EC50) in experiment [1] (GS4.3 cells, 72 h incubation) was less than 100 nM.

With `Cc1ccc(S(=O)(=O)NC(=O)[C@@]23C[C@H]2/C=C\CCCCC[C@H](NC(=O)OC(C)(C)C)C(=O)N2C[C@H](OC(=O)N4CCc5ccccc5C4)C[C@H]2C(=O)N3)cc1` [AR00320549, (1S,4R,6S,14S,18R)-3,4-Dihydro-1H-isoquinoline-2-carboxylic acid 14-tert-butoxycarbonylamino-2,15-dioxo-4-(toluene-4-sulfonylaminocarbonyl)-3,16-diaza-tricyclo[14.3.0.0^4,6]nonadec-7-en-18-yl ester], the 50% inhibitory concentration (IC50) on NS3-NS4A protease was less than 100 nM. The 50% effective concentration (EC50) in experiment [1] (72 h) was less than 100 nM.

For the compound `O=C(Cc1ccccc1)N[C@H]1CCCCC/C=C\[C@@H]2C[C@@]2(C(=O)NS(=O)(=O)C2CC2)NC(=O)[C@@H]2C[C@@H](OC(=O)N3Cc4cccc(F)c4C3)CN2C1=O` [AR00340188, (1S,4R,6S,14S,18R)-4-Fluoro-1,3-dihydro-isoindole-2-carboxylic acid 4-cyclopropanesulfonylaminocarbonyl-2,15-dioxo-14-phenylacetylamino-3,16-diaza-tricyclo[14.3.0.0^4,6]nonadec-7-en-18-yl ester], the IC50 on NS3-NS4A protease was less than 100 nM. The concentration giving a half-maximal response (EC50) in experiment [1] (GS4.3 cells, 72 h incubation) is less than 1000 nM.
